Consider one molecule from patent publication US20260102460A1, “NOVEL COMBINATIONS OF ANTIBIOTICS AND NON-ANTIBIOTIC DRUGS EFFECTIVE IN VIVO AGAINST GRAM-POSITIVE BACTERIA, IN PARTICULAR METHICILLIN-RESISTANT S. AUREUS (MRSA)” (EUROPEAN MOLECULAR BIOLOGY LABORATORY, priority 2022, published 2026).

Test [1] relates to S. aureus Newman. The test can be described thus: Ticagrelor MIC upon purine supplementation. The class given is cell-based, Staphylococcus aureus. The note with it: supplementation with adenosine, inosine or their combination; SSM9PR medium with 1% glucose. How it is done: MICs were tested in all strains for the main screen. Drugs were two-fold serially diluted in 11 concentrations, and 32 no-drug control wells were included in each plate. Experiments were conducted in 384-well plates (ref. 781271 by Greiner BioOne), with a total volume of 30 μl for S. aureus and B. subtilis and 55 μl for S. pneumoniae. Volumes were optimized for each strain to achieve good dynamic range for growth and minimize risk of cross-contamination between wells. Plates were inoculated with a starting optical density at 595 nm (OD595 nm) of 0.01 from an overnight culture. All liquid handling was performed using a Biomek FX liquid handler (Beckman Coulter). Plates were sealed with breathable membranes and incubated at 37° C. OD595 nm was measured every 30 minutes for 14 hours. The MIC was considered as the first concentration at which growth was inhibited. Experiments were conducted in biological duplicates. For the adjuvant screen, antibiotics were tested in S. aureus DSM 20231 at the same concentrations as for the main screen. Non-antibiotics concentrations were selected to fall within therapeutic ranges.
Ticagrelor (ref. SML2482, Sigma-Aldrich) MIC was measured upon purine supplementation in S. aureus Newman as described above in SSM9PR minimal medium supplemented with 1% glucose79, in 384-well plates (ref. 781271 by Greiner BioOne) with a final volume of 30 μl. […]

Test [2] concerns S. aureus Newman. The test can be described thus: Two-dimensional thermal proteome profiling (2D-TPP), whole cell and lysate. It is filed as cell-based, Staphylococcus aureus. Conditions: for thermal stability of ATP- and GTP-binding enzymes and transporters: ticagrelor 0.04-4 μg/ml.
Test [3] relates to S. aureus Newman. The test can be described thus: Cytochrome c binding assay (cell surface charge). The class given is cell-based, Staphylococcus aureus. Conditions: ticagrelor 10 and 5 μg/ml for 20 minutes. Here is the method: The cytochrome c binding assay was conducted as previously described (Radlinski, L. C. et al. Chemical Induction of Aminoglycoside Uptake Overcomes Antibiotic Tolerance and Resistance in Staphylococcus aureus. Cell Chem Biol 26, 1355-1364.e4 (2019)). Briefly, overnight cultures of S. aureus Newman were diluted 1:1000 in 20 ml of TSB medium and grown in flasks at 37° C. with continuous shaking until they reached OD578 nm˜0.45. Samples were then incubated in the same conditions with or without 10 and 5 μg/ml ticagrelor for 20 minutes. Samples were centrifuged at 10000 g for 15 minutes, washed twice with 20 mM MOPS buffer (pH 7) and concentrated to reach a final A578 of 10 in a 96 well-plate (ref. 4483481, Applied Biosystems™) containing cytochrome c (0.25 mg/ml, ref. 101467, MP Bio) or MOPS buffer (FIG. 5g). The plate was incubated in the dark at room temperature for 10 minutes. The cell pellets were collected, and the amount of cytochrome c in the supernatant was determined spectrophotometrically at an OD410 nm. Two-fold dilutions of cytochrome c in the same plate, starting from 256 μg/ml, were used to obtain a standard curve onto which a linear model was fitted to calculate cytochrome c concentrations in the other wells. Results are expressed as unbound cytochrome c fraction in the supernatants. Experiments were conducted in four biological replicates.

The next test relates to MRSA. In words: G. mellonella infection model, drug combination therapy. It is filed as in vivo, Galleria mellonella. Conditions: G. mellonella infected with MRSA isolate resistant to tigecycline, gentamicin 2 μg/ml, ticagrelor 100 μg/ml (FIG. 5e). The source says: Drug interaction networks in S. aureus, with drugs grouped according to their class (a) or targeted cellular process (b). Unique interactions across both strains tested are considered (i=331). Edge thickness represents the proportion of interactions for each node pair, considering all possible interactions given the number of drugs in each node. Nodes depict the drug class (a) or the targeted cellular process (b), and size is proportional to the number of drugs in the represented class/process. Only interacting drugs are considered (d=62). Synergies, antagonisms and nodes are colored according to FIG. 1. c. Novel and previously reported interactions detected in S. aureus. Interactions are considered known if reported in any S. aureus strain (Supplementary Table 4). d-e. Novel synergies are effective against MRSA clinical isolates in vitro (d) and in vivo in the G. mellonella infection model (e). […] The percentage of surviving larvae after treatment and in the untreated controls was monitored over time. […]
Larvae of the greater wax moth (Galleria mellonella) at their final instar larval stage were used for evaluation of selected drug combinations to assess their efficacy against MRSA in vivo. […] The survival of Galleria larvae was monitored at the indicated time points by two observers independently. Each strain-drug combination was evaluated in three independent experiments.

The structures appear in SMILES notation.

With `CCCSc1nc(N[C@@H]2C[C@H]2c2ccc(F)c(F)c2)c2nnn([C@@H]3C[C@H](OCCO)[C@@H](O)[C@H]3O)c2n1` [ticagrelor], the “change of MIC upon purine supplementation” value in the test on S. aureus Newman [1] is “increased”. In the test on S. aureus Newman [2] (live cells), the “abundance of purine biosynthesis enzymes (PurC, PurD, PurE, PurF, PurK, PurL, PurM, PurN, PurQ)” value is on record as “induction”. Also, in the test on S. aureus Newman [2] (lysate), the “thermal stability of DltC and DltD (LTA D-alanylation)” value was “destabilized”. Also, the “thermal stability of ClfA, ClfB, coagulase Coa and vWBP” value in the test on S. aureus Newman [2] (lysate, clinically-relevant ticagrelor concentration) is on record as “destabilization”. In addition, the “thermal stability of ATP- and GTP-binding enzymes and transporters” value with S. aureus Newman [2] (lysate) and with S. aureus Newman [2] (whole cell) was “destabilization” each time. In addition, the “thermal stability of TagG (WTA translocase subunit)” value in the test with S. aureus Newman [2] (whole cell sample) is “destabilized”. For the same molecule, in the test with S. aureus Newman [2] (whole-cell samples, clinically-relevant ticagrelor concentration), the “abundance of ClfA, ClfB, coagulase Coa and vWBP” value is “downregulation”. In addition, in the test with S. aureus Newman [3], the “binding of positively-charged cytochrome C to intact S. aureus cells” value was “increased”. The “interaction with gentamicin in vivo (survival of infected larvae)” value in the test on MRSA is reported as “evident”; with MRSA (listed as Ticagrelor), “synergizes”.
